The values that follow come from patent publication US20190216829A1, “Anticancer Compositions” (ARAGON PHARMACEUTICALS, INC., priority 2016, published 2019).

In brackets after ≈: the same amount, converted by molar mass.

Broadly, the Solubility is how much of the substance goes into solution per volume. Low readings indicate little dissolved substance, high ones much dissolved substance.

The series in a line: Solubility of ARN-509 forms in water. In kind it is physicochemical. The protocol:
Solubility of Form A: 0.01 mg/ml in water.
Solubility of Form B: 0.004 mg/ml in water.

The compound `CNC(=O)c1ccc(N2C(=S)N(c3cnc(C#N)c(C(F)(F)F)c3)C(=O)C23CCC3)cc1F` [Form B, 4-[7-(6-cyano-5-trifluoromethylpyridin-3-yl)-8-oxo-6-thioxo-5,7-diazaspiro[3.4]oct-5-yl]-2-fluoro-N-methylbenzamide] gave a Solubility of 4 µg/mL (≈ 8.38 µM).

`CNC(=O)c1ccc(N2C(=S)N(c3cnc(C#N)c(C(F)(F)F)c3)C(=O)C23CCC3)cc1F` [Form A, 4-[7-(6-cyano-5-trifluoromethylpyridin-3-yl)-8-oxo-6-thioxo-5,7-diazaspiro[3.4]oct-5-yl]-2-fluoro-N-methylbenzamide]: the Solubility came to 10 µg/mL (≈ 20.9 µM).
